Tested on: Influenza A virus (A/Puerto Rico/8/1934(H1N1))
Experiment: Antiviral activity against Influenza A virus (A/Puerto Rico/8/34(H1N1)) PR/8 infected in MDCK cells assessed as protection against virus-induced cytopathogenicity after 48 hrs by crystal-violet staining-based assay
Format: functional, organism-based
Settings: PR/8, MDCK

Row | Compound | IC50 [µM]
1 | CC(C)(O)[C@H]1O[C@H]2CC[C@@]3(C)[C@@H](CC[C@H]4Cc5c([nH]c6ccccc56)[C@@]43C)[C@]2(O)[C@H](O)[C@H]1O | 32.2
2 | CC(O)(CO)[C@H]1O[C@H]2CC[C@@]3(C)[C@@](O)(CC[C@H]4Cc5c([nH]c6ccccc56)[C@@]43C)C2=CC1=O (some centres not stated) | 125
3 | CC(C)=CCc1cc2[nH]c3c(c2cc1CC=C(C)C)C[C@@H]1CC[C@@]2(O)C4=CC(=O)[C@@H](C(C)(C)O)O[C@H]4CC[C@]2(C)[C@@]31C | 73.3
4 | CC(C)=CCC[C@](C)(O)[C@H](O)CC/C(C)=C/CC/C(C)=C/Cc1c[nH]c2ccccc12 | 34.1
5 | CC(C)=CCc1ccc2[nH]c3c(c2c1)C[C@@H]1CC[C@@]2(O)C4=CC(=O)[C@@H](C(C)(C)O)O[C@H]4CC[C@]2(C)[C@@]31C | 6.6
6 | CC(C)(O)[C@@H]1CC[C@]2(C(=O)O)[C@H](CC[C@@]3(C)[C@H]2CC[C@H]2Cc4c([nH]c5ccccc45)[C@@]23C)O1 | 38.9
7 | CC(C)(O)[C@@H]1CC=C2[C@H](CC[C@@]3(C)[C@H]2CC[C@H]2Cc4c([nH]c5ccccc45)[C@@]23C)O1 | 28.3
8 | CC(C)(O)[C@H]1O[C@H]2CC[C@@]3(C)[C@@H](CC[C@H]4Cc5c([nH]c6ccccc56)[C@@]43C)C2=CC1=O [DEHYDROXYPAXILLINE] | > 150
9 | CC(C)=CCC[C@]1(C)[C@@H](O)CC[C@@]2(C)[C@H]1CC[C@H]1Cc3c([nH]c4ccccc34)[C@@]12C [EMINDOLE SB] | 26.2
10 | CC(C)(O)[C@@H]1CC[C@]2(C)[C@H](CC[C@@]3(C)[C@H]2CC[C@H]2Cc4c([nH]c5ccccc45)[C@@]23C)O1 [PASPALINE] | 77.9
11 | CC(C)(O)[C@H]1O[C@H]2CC[C@@]3(C)[C@@](O)(CC[C@H]4Cc5c([nH]c6ccccc56)[C@@]43C)C2=CC1=O [PAXILLINE] | 17.7
12 | NC(=O)c1ncn([C@@H]2O[C@H](CO)[C@@H](O)[C@H]2O)n1 [RIBAVIRIN] | 113
